# Results reported in US11136409B2, “Compositions and methods for identification, assessment, prevention, and treatment of AML using USP10 biomarkers and modulators” (Dana-Farber Cancer Institute, Inc., priority 2016, dated 2021).
# pIC50: −log10 of the molar value. Read-outs that look alike come from different tables or passages of the source.
# Key:
# [1] = test system: AML primagraft (D835Y+, FLT3-ITD+) cells; test: Treatment of mutant FLT3-expressing AML primagraft cells ex vivo; type: cell-based, human; settings: read-out: IC50 (+/−S.D.) AML primagraft (D835Y+, FLT3-ITD+)
# Description: All animal studies were performed according to protocols approved by the Dana-Farber Cancer Institute's Institutional Animal Care and Use Committee. […] Mice were sacrificed on day 21 of treatment. Bone marrow was flushed from mouse femurs, and spleens and livers were dissected and preserved first in formalin, followed 24 hours later by preservation in 70% ethanol. […] All AML primagraft samples used in the studies described herein were obtained through the Public Repository of Xenografts (proxe.org).
# The CellTiter-Glo® assay (Promega, Madison, Wis.) was used for proliferation studies and carried out according to manufacturer instructions. Cell viability is reported as percentage of control (untreated) cells, and error bars represent the standard error of the mean for each data point.
# [2] = target: T1, human USP10 (residues 376-798) (Homo sapiens, UniProt Q14694); test: In vitro USP10 activity assay (Ubiquitin-AMC); type: biochemical; settings: biochemical assay, FIG. 13B
# T1 construct: A construct of human USP10 covering residues 376-798 in the pET28a vector; His-tag (cleaved yes); made in house; host or cells: E. coli BL21 (DE3)
# Description: Protein expression and purification. A construct of human USP10 covering residues 376-798 in the pET28a vector was over-expressed in E. coli BL21 (DE3) in TB medium in the presence of […] of kanamycin. Cells were grown at 37° C. to an OD of 0.8, cooled to 17° C., induced with 500 μM isopropyl-1-thio-D-galactopyranoside, incubated overnight at 17° C., collected by centrifugation, and stored at −80° C. Cell pellets were sonicated in buffer A (50 mM HEPES (pH 7.5), 300 mM NaCl, 10% glycerol, 10 mM Imidazole, and 3 mM BME) and the resulting lysate was centrifuged at 30,000×g for 30 min. Ni-NTA beads (Qiagen) were mixed with lysate supernatant for 30 min and washed with buffer A. Beads were transferred to an FPLC-compatible column and the bound protein was washed with 15% buffer B (50 mM HEPES (pH 7.5), 300 mM NaCl, 10% glycerol, 300 mM Imidazole, and 3 mM BME) and eluted with 100% buffer B. Thrombin was added to the eluted protein and incubated at 4° C. overnight. The sample was then passed through a HiPrep 26/10 desalting column (GE Healthcare) pre-equilibrated with buffer A without imidazole, and the eluted protein was subjected to a second Ni-NTA step to remove His-tag and Thrombin. The eluent was concentrated and passed through a Superdex® 200 10/300GL column (GE Healthcare) in a buffer containing 20 mM HEPES (pH 7.5), 150 mM NaCl, and 1 mM DTT. Fractions were pooled, concentrated to 20 mg/ml, and frozen at −80° C.
# In vitro USP10 activity assay. Recombinant USP10, residues 376-798, was tested for its activity in a Ubiquitin-AMC assay in presence or absence of inhibitors. For this assay, 10 nM USP10 were pre-incubated with different concentrations of inhibitors or DMSO as a control in 50 mM HEPES pH7.6, 0.5 mM EDTA, 11 uM ovalbumin, and 5 mM DTT. The reaction was incubated for 6 hours at room temperature prior to the addition of 2 uM Ubiquitin-AMC (Boston Biochem) substrate. The initial rate of the reaction was measured by collecting fluorescence data at one minute intervals over 30-minute period using a CLARIOstar® fluorescence plate reader at excitation and emission wavelength of 345 and 445 nm, respectively. The calculated initial rate values were plotted against inhibitor concentrations to determine IC50 values.
# [3] = test system: mutant FLT3-expressing cells; test: Dynamic BH3 profiling (mitochondrial priming); type: cell-based, human; settings: cytochrome c release in response to Bim peptide, 14 h; compared to wt or null FLT3-expressing cells
# Description: To determine drug-induced changes in mitochondrial priming, dynamic BH3 profiling was performed as previously described in Montero et al. (2015) Cell 160:977-989 and Pan et al. (2014) Cancer Discov. 4:362-375. Briefly, 0.4×10^6 cells/well were exposed to drug treatment for 14 hours. At the end of incubation time, cells were washed in PBS, pelleted at 500×g for 5 min, and resuspended in MEB buffer. Fifteen μl of cell suspension was added to each well of 384 well plate containing 15 μl of MEB buffer containing 20 μg/mL digitonin and BH3 peptides at twice their final concentration, and the mixture was incubated for 60 min at 26° C. to allow mitochondrial depolarization. Peptide exposure was then terminated by adding 10 μl 4% formaldehyde in PBS for 15 min, followed by neutralization with N2 buffer (1.7M Tris, 1.25M glycine, pH 9.1) for 10 min. In order to determine cytochrome C levels, anti-cytochrome C clone 6H2.B4 conjugated to Alexa Fluor® 647 (BD Bioscience) was diluted 1:50 in 10× staining buffer (10% BSA, 2% Tween-20 and 0.02% sodium azide in PBS) and 10 μl of this antibody-containing buffer was added to each well for a final dilution of 1:400. Cells were stained overnight at 4° C. in dark and data were acquired on a BD LSRFortessa™ analyzer (BD Biosciences). Priming change (Δ) was calculated by comparing cytochrome C abundance in treated cells to that of DMSO-treated control cells.
# Ba/F3-D835Y cells [4] = test: Immunoblot of FLT3 in Ba/F3-D835Y cells; type: cell-based, murine
# From the text: FLT3/Flk-2 (C-20) (sc-479) and Ub (P4D1) (mouse, sc-8017) were purchased from Santa Cruz Biotechnology, Inc. (Dallas, Tex.) and used at 1:1000 dilution for immunoblotting. Anti-pTyr (mouse, clone 4G10) was purchased from Upstate Biotechnology (Lake Placid, N.Y.) and was used at 1:1000 dilution. Anti-HAUSP/USP7 antibody (rabbit, ab4080) and anti-ubiquitin antibody (rabbit, ab7780) were purchased from Abcam (Cambridge, Mass.) and used at 1:1000 dilution.
# (§1) Protein lysate preparation, immunoblotting, and immunoprecipitation were carried out as previously described in Weisberg et al. (2002) Cancer Cell 1:433-443.
# USP10 = USP10 target engagement in cells, labeling with HA-Ub-VS; type: cell-based; settings: lysates from live treated cells
# Description: Cells were harvested, washed with PBS, and lysed in 1% NP-40, 10% glycerol, 2% sodium orthovanadate, and HALT protease inhibitor cocktail (ThermoFisher). Lysate was diluted to 50 ug in 30 uL lysis buffer with 1% DTT and incubated on ice for 15 minutes. 0.25 ug HA-Ub-VS was added, and the sample was gently rocked at room temperature for 30 minutes, then denatured with LDS sample buffer.
# [5] = test system: FLT3-ITD-positive AML primagraft cells; test: FLT3 immunoblot in ex vivo-treated AML primagraft cells; type: cell-based, human; settings: 21 hours of treatment; concentration of 20
# Description: as §1
# Ba/F3-D835Y cells [6] = test system: Ba/F3-D835Y cells
# T1 sequence (Q14694 376-798): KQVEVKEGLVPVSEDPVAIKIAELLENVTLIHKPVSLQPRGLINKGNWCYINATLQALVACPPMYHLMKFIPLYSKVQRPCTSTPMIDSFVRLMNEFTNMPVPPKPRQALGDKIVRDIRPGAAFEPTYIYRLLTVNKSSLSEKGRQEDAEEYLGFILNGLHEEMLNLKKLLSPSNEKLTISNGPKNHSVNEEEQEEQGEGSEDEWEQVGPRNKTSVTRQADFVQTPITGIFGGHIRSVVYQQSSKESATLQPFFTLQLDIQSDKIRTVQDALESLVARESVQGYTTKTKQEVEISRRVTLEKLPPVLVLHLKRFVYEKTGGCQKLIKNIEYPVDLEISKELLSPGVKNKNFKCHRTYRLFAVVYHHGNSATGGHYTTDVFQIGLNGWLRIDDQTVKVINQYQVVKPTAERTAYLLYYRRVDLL
SMILES,pIC50 ([1]; 24 hr assay),pIC50 ([1]; 72 hr assay),USP10 inhibition compared with HBX19818 [2],Mitochondrial priming for apoptosis [3],"pIC50 ([1]; Homo sapiens, 24 hr assay)","pIC50 ([1]; Homo sapiens, 72 hr assay)",FLT3 protein levels (Ba/F3-D835Y cells [4]),Inhibitor concentration blocking USP10 labeling by HA-Ub-VS (USP10),FLT3 levels via immunoblotting [5],Proliferation EC50 (Ba/F3-D835Y cells [6])
O=C(NCCCN1CCN(Cc2ccccc2)CC1)c1ccc2nc3c(c(Cl)c2c1)CCCC3 [C598-0563],4.91,5.55,comparably to HBX19818,,,,,,,
CCCN(CCC)CCCNC(=O)c1ccc2c(Cl)c3c(nc2c1)CCCC3 [C598-0466],5.39,6.22,more potent,,,,,,,
CCN(CCCNC(=O)c1ccc2nc3c(c(Cl)c2c1)CCC3)Cc1ccccc1 [C673-0105],5.07,5.51,comparably to HBX19818,more strongly,,,,,,
"CN(CCCNC(=O)c1ccc2nc3c(c(Cl)c2c1)CCCC3)Cc1ccccc1 [HBX19818, reference compound]",,,,increased priming,5.01,5.72,more modest loss of FLT3 protein,low micromolar range,no trace of FLT3,single digit micromolar range
